# Measured values reported in ChEMBL document CHEMBL1201862, “PubChem BioAssay data set” (2004).
#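 A five-concentration, 48-hour dose response in 96-well plates underlies each endpoint, interpolated linearly between surrounding concentrations. The concentration for 50% growth inhibition is given as GI50.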 Activity calls are given as the source filed them. Cut-off read from the data, not from the text of the source: active = GI50 up to about 1.1 µM and inactive = higher.
# Legend:
# Assay in all cases: NCI-60 cell line screen, 48 h
# 786-0 = system: 786-0
# A498 = system: A498
# A549 = system: A549
# ACHN = system: ACHN
# BT-549 = system: BT-549
# CAKI-1 = system: CAKI-1
# CCRF-CEM = system: CCRF-CEM
# COLO 205 = system: COLO 205
# DU-145 = system: DU-145
# EKVX = system: EKVX
# HCC 2998 = system: HCC 2998
# HCT-116 = system: HCT-116
# HCT-15 = system: HCT-15
# HL-60 = system: HL-60
# HOP-62 = system: HOP-62
# HOP-92 = system: HOP-92
# HT-29 = system: HT-29
# Hs-578T = system: Hs-578T
# IGROV-1 = system: IGROV-1
# K562 = system: K562
# LOX IMVI = system: LOX IMVI
# M14 = system: M14
# MCF7 = system: MCF7
# MDA-MB-231 = system: MDA-MB-231
# MDA-MB-435 = system: MDA-MB-435
# MDA-N = system: MDA-N
# MOLT-4 = system: MOLT-4
# Malme-3M = system: Malme-3M
# NCI-H226 = system: NCI-H226
# NCI-H23 = system: NCI-H23
# NCI-H460 = system: NCI-H460
# NCI-H522 = system: NCI-H522
# NCI/ADR-RES = system: NCI/ADR-RES
# OVCAR-3 = system: OVCAR-3
# OVCAR-4 = system: OVCAR-4
# OVCAR-5 = system: OVCAR-5
# OVCAR-8 = system: OVCAR-8
# PC-3 = system: PC-3
# RPMI-8226 = system: RPMI-8226
# SF-295 = system: SF-295
# SF-539 = system: SF-539
# SK-MEL-28 = system: SK-MEL-28
# SK-MEL-2 = system: SK-MEL-2
# SK-MEL-5 = system: SK-MEL-5
# SK-OV-3 = system: SK-OV-3
# SN12C = system: SN12C
# SNB-19 = system: SNB-19
# SNB-75 = system: SNB-75
# SR = system: SR
# SW-620 = system: SW-620
# T47D = system: T47D
# TK-10 = system: TK-10
# U-251 = system: U-251
# UACC-257 = system: UACC-257
# UACC-62 = system: UACC-62
# UO-31 = system: UO-31
compound,measurement,setting,value
O=[N+]([O-])c1ccc(/N=N\c2c(O)c(S(=O)(=O)O)cc3cc(S(=O)(=O)O)ccc23)cc1,GI50,786-0,> 100 µM (inactive)
same,GI50,A498,> 100 µM (inactive)
same,GI50,A549,> 100 µM (inactive)
same,GI50,ACHN,> 100 µM (inactive)
same,GI50,BT-549,> 100 µM (inactive)
same,GI50,CAKI-1,> 100 µM (inactive)
same,GI50,CCRF-CEM,> 100 µM (inactive)
same,GI50,COLO 205,> 100 µM (inactive)
same,GI50,DU-145,> 100 µM (inactive)
same,GI50,EKVX,> 100 µM (inactive)
same,GI50,HCC 2998,> 100 µM (inactive)
same,GI50,HCT-116,> 100 µM (inactive)
same,GI50,HCT-15,> 100 µM
same,GI50,HL-60,> 100 µM (inactive)
same,GI50,HOP-62,88.5 µM (inactive)
same,GI50,HOP-92,> 100 µM (inactive)
same,GI50,HT-29,> 100 µM (inactive)
same,GI50,Hs-578T,> 100 µM (inactive)
same,GI50,IGROV-1,> 100 µM (inactive)
same,GI50,K562,> 100 µM (inactive)
same,GI50,LOX IMVI,> 100 µM (inactive)
same,GI50,M14,> 100 µM (inactive)
same,GI50,MCF7,> 100 µM (inactive)
same,GI50,MDA-MB-231,> 100 µM (inactive)
same,GI50,MDA-MB-435,> 100 µM (inactive)
same,GI50,MDA-N,> 100 µM (inactive)
same,GI50,MOLT-4,> 100 µM (inactive)
same,GI50,Malme-3M,> 100 µM (inactive)
same,GI50,NCI-H226,> 100 µM (inactive)
same,GI50,NCI-H23,> 100 µM (inactive)
same,GI50,NCI-H460,> 100 µM (inactive)
same,GI50,NCI-H522,> 100 µM (inactive)
same,GI50,NCI/ADR-RES,> 100 µM (inactive)
same,GI50,OVCAR-3,27 µM (inactive)
same,GI50,OVCAR-4,> 100 µM (inactive)
same,GI50,OVCAR-5,> 100 µM (inactive)
same,GI50,OVCAR-8,> 100 µM (inactive)
same,GI50,PC-3,> 100 µM (inactive)
same,GI50,RPMI-8226,> 100 µM (inactive)
same,GI50,SF-295,> 100 µM (inactive)
same,GI50,SF-539,> 100 µM (inactive)
same,GI50,SK-MEL-28,> 100 µM (inactive)
same,GI50,SK-MEL-2,> 100 µM (inactive)
same,GI50,SK-MEL-5,> 100 µM (inactive)
same,GI50,SK-OV-3,> 100 µM (inactive)
same,GI50,SN12C,> 100 µM (inactive)
same,GI50,SNB-19,> 100 µM (inactive)
same,GI50,SNB-75,> 100 µM (inactive)
same,GI50,SR,> 100 µM (inactive)
same,GI50,SW-620,> 100 µM (inactive)
same,GI50,T47D,> 100 µM (inactive)
same,GI50,TK-10,> 100 µM (inactive)
same,GI50,U-251,> 100 µM (inactive)
same,GI50,UACC-257,> 100 µM (inactive)
same,GI50,UACC-62,> 100 µM (inactive)
same,GI50,UO-31,> 100 µM (inactive)
